Results as given in paper PMC8776894 (Communications Biology, 2022).

Experiments:
[1] = test system: 17 phosphorylation sites, prefrontal cortex lysate; assay: Phospho antibody microarray; assay type: in vivo, mouse
Description: Protein phosphorylation detection was performed with a Phospho Explorer Antibody Array (Catalog number AAM-APOSIG-1-8, Ray Biotech, USA), allowing for the examination of 17 phosphorylation sites (three replicates per antibody). Whole-cell lysates from the prefrontal cortex in mice after MCAO/R and VK-treated, and the assay was performed according to the manufacturer’s protocol.

HT22 cells (OGD/R) = assay: Intracellular ROS (DCFH-DA, flow cytometry); assay type: cell-based, mouse; settings: 24-h pretreatment with VK
mice = assay: Coagulation function (PT, APTT, TT, FIB) in acute toxicity test; assay type: in vivo, mouse; settings: VK 1.5-384 mg/kg single i.p., after 14th day
Description: Platelet aggregation function test. Venous blood from (normal healthy rabbits) was collected in 3 mL sodium citrate anticoagulation vacuum plastic tubes. The collected venous blood was centrifuged for 10 min at 100 × g at 4℃ to obtain the upper plasma, and the platelet rich plasma (PRP) was prepared, centrifuged again for 10 min at 2000 × g at 4°C to draw the upper plasma, the platelet poor plasma (PPP) was prepared and […] to a platelet concentration of 3×10^8 cells/ml was counted. The adjusted PRP was placed into a four-channel platelet aggregation instrument (Agg RAM, Helena Laboratories, USA) to determine the 5 min maximum platelet aggregation rate with adenosine diphosphate (ADP), arachidonic acid (AA), thrombin, collagen (COL) , and platelet-activating factor (PAF) or saline as inducers (at a final […]
Acute toxicity test. Systemic acute toxicity test by peritoneal injection was performed according to the guideline provided by Center for Drug Evaluation and Research. In addition to the normal group, male mice were randomly divided into the treated groups received a single dose of 1.5 mg/kg, 6 mg/kg, 24 mg/kg, 96 mg/kg and 384 body weight of VK. […]
The obtained plasma was analyzed using an automatic coagulation apparatus (CA1500). […]

[2] = Group2(VK 150) VS Group1(VK 300)
[3] = Group2(VK 150) VS Group3(Sham), AveExp.Group3 minus AveExp.Group2
[4] = Group4(Vehicle) VS Group1(VK 300)
[5] = Group4(Vehicle) VS Group2(VK 150)
[6] = Vehicle vs VK headed 150 mg/kg, Regulation up
[7] = Vehicle vs VK headed 300mg/kg, Regulation up

## Gly-Arg-Pro-Hyp-Gly-Phe-Ser-Pro-Phe-Arg-Ile-Asp [VK, Vespakinin-M]
[1]; [2]
  AKT(S473) logFC: 0.1681
  ATM(S1981) logFC: 0.4433
  BAD(S112) logFC: 0.1628
  CHK1 (S296) logFC: 0.118
  Casp3(D175) logFC: 0.2616
  Casp7(D198) logFC: 0.356
  Erk1/2(T202) logFC: 0.2636
  IkBa (S32) logFC: -0.1062
  JNK(T183) logFC: 0.1152
  NFKB(S536) logFC: 0.07606
  P27(T198) logFC: -0.02206
  P38(T180/Y182) logFC: 0.08158
  P53(S15) logFC: -0.02082
  SMAD2(S245) logFC: 0.2566
  TAK1(S412) logFC: 0.04657
  eIF2a (S51) logFC: 0.3172
  hsp27(S82) logFC: 0.2446
[1]; [3]
  AKT(S473) logFC: 0.1633
  ATM(S1981) logFC: 0.1496
  BAD(S112) logFC: 0.121
  CHK1 (S296) logFC: 0.2057
  Casp3(D175) logFC: 0.09625
  Casp7(D198) logFC: 0.03142
  Erk1/2(T202) logFC: 0.1043
  IkBa (S32) logFC: 0.1056
  JNK(T183) logFC: 0.02185
  NFKB(S536) logFC: -0.02812
  P27(T198) logFC: 0.08521
  P38(T180/Y182) logFC: -0.03282
  P53(S15) logFC: 0.03719
  SMAD2(S245) logFC: 0.04639
  TAK1(S412) logFC: 0.09444
  eIF2a (S51) logFC: 0.1069
  hsp27(S82) logFC: 0.06748
[1]; Group3(Sham) VS Group1(VK 300)
  AKT(S473) logFC: 0.3314
  ATM(S1981) logFC: 0.5929
  BAD(S112) logFC: 0.2838
  CHK1 (S296) logFC: 0.3237
  Casp3(D175) logFC: 0.3578
  Casp7(D198) logFC: 0.3874
  Erk1/2(T202) logFC: 0.3679
  IkBa (S32) logFC: -0.0006282
  JNK(T183) logFC: 0.137
  NFKB(S536) logFC: 0.04795
  P27(T198) logFC: 0.06315
  P38(T180/Y182) logFC: 0.04876
  P53(S15) logFC: 0.01637
  SMAD2(S245) logFC: 0.303
  TAK1(S412) logFC: 0.141
  eIF2a (S51) logFC: 0.4241
  hsp27(S82) logFC: 0.3121
[1]; [4]
  CHK1 (S296) logFC: 0.6052
  Casp7(D198) logFC: 0.6994
  Erk1/2(T202) logFC: 0.4686
  IkBa (S32) logFC: 0.671
  JNK(T183) logFC: 0.4121
  NFKB(S536) logFC: 0.4222
  P38(T180/Y182) logFC: 0.4307
  hsp27(S82) logFC: 0.386
  logFC AKT(S473): 0.1073
  logFC ATM(S1981): 0.3928
  logFC BAD(S112): 0.3454
  logFC Casp3(D175): 0.3417
  logFC P27(T198): 0.1337
  logFC P53(S15): 0.1112
  logFC SMAD2(S245): 0.1323
  logFC TAK1(S412): 0.1801
  logFC eIF2a (S51): 0.3444
[1]; [5]
  logFC AKT(S473): -0.06086
  logFC ATM(S1981): -0.05046
  logFC BAD(S112): 0.1826
  logFC CHK1 (S296): 0.4872
  logFC Casp3(D175): 0.08018
  logFC Casp7(D198): 0.3435
  logFC Erk1/2(T202): 0.205
  logFC IkBa (S32): 0.7772
  logFC JNK(T183): 0.2969
  logFC NFKB(S536): 0.3462
  logFC P27(T198): 0.1557
  logFC P38(T180/Y182): 0.3491
  logFC P53(S15): 0.132
  logFC SMAD2(S245): -0.1242
  logFC TAK1(S412): 0.1335
  logFC eIF2a (S51): 0.02722
  logFC hsp27(S82): 0.1414
[1]; VK 150 µg/kg, MCAO/R mice
  levels of IκBa (S32), CHK1 (S296), NF-κB (S536), p38 (T180/Y182), Casp7 (D198), JNK(T183) vs vehicle: clearly decreased levels
[1]; VK group headed 150 mg/kg
  NFκB(S536) AveExp. Group2: 11
[1]; VK group headed 150 mg/kg (text 150 µg/kg)
  IκBa (S32) AveExp. Group2: 10.95
[1]; VK group headed 300mg/kg
  NFκB(S536) AveExp. Group1: 10.93
[1]; VK group headed 300mg/kg (text 300 µg/kg)
  IκBa (S32) AveExp. Group1: 11.05
[1]; Vehicle (Group4) vs VK headed 150 mg/kg, Regulation up
  IκBa (S32) logFC: 0.7772
[1]; Vehicle (Group4) vs VK headed 300mg/kg, Regulation up
  IκBa (S32) logFC: 0.671
[1]; [6]
  Casp7(D198) logFC: 0.3435
  JNK(T183) logFC: 0.2969
  NFκB(S536) logFC: 0.3462
[1]; [7]
  ATM(S1981) logFC: 0.3928
  BAD(S112) logFC: 0.3454
  CHK1 (S296) logFC: 0.6052
  Casp3(D175) logFC: 0.3417
  Casp7(D198) logFC: 0.6994
  Erk1/2(T202) logFC: 0.4686
  JNK(T183) logFC: 0.4121
  NFκB(S536) logFC: 0.4222
  P38(T180/Y182) logFC: 0.4307
  eIF2a (S51) logFC: 0.3444
  hsp27(S82) logFC: 0.386
HT22 cells (OGD/R)
  OGD-induced ROS levels: rescue the OGD-induced ROS levels
mice
  four coagulation (PT, APTT, TT, FIB): No obvious change
